Values quoted from earlier work, collected in US20070110808A1, “Extended release osmo-microsealed formulation” (ALEMBIC LIMITED, priority 2003, published 2007).

Conditions: compressed tablets, 75 to 350 mg/day in divided doses two or three times a day

- patients experiencing nausea: about forty five
- patients in whom vomiting occurs: about seventeen
SMILES: COc1ccc(C(CN(C)C)C2(O)CCCCC2)cc1.Cl (centres unmarked) [Venlafaxine Hydrochloride, 1-[2-(dimethylamino)-1-(4-methoxyphenyl)ethyl]cyclohexanol Hydrochloride]
